Reference: PubChem BioAssay AID1259408 (Genetic Toxicology Data Bank (GENE-TOX), 2018)
The source made the active and inactive calls. The rule behind the calls is not given here.

System: GENE-TOX genotoxicity assays, various organisms and cells
Assay: GENE-TOX mutagenicity studies
Details: for call: Assay Type: In vivo carcinogenicity studies
[1] = Species/Cell Type: Escherichia coli polA (W3119 vs P3478), Assay Type: Rec-assay, DNA effects (bacterial DNA repair), Assay Code: RE1+, Evaluation Type: Evaluation A (Pre-1980)
[2] = Species/Cell Type: Human, Assay Type: Sister-chromatid exchange (SCE) in vitro, Assay Code: SC1+D, Dose Response: With dose response, Evaluation Type: Evaluation B (Post-1980)
[3] = Species/Cell Type: Neurospora crassa, Assay Type: Forward gene mutation, Assay Code: NEF+, Evaluation Type: Evaluation A (Pre-1980)
[4] = Species/Cell Type: Saccharomyces cerevisiae, Assay Type: Mitotic recombination or gene conversion, Assay Code: YEC+, Evaluation Type: Evaluation A (Pre-1980)
[5] = Species/Cell Type: Salmonella typhimurium (one or more of the five standard strains: TA98, TA100, TA1535, TA1537, and TA1538), Assay Type: Histidine reverse gene mutation, Ames assay, Assay Code: SAL+, Evaluation Type: Evaluation A (Pre-1980)
[6] = Species/Cell Type: Vicia faba, Assay Type: Chromosome aberrations, Assay Code: VIC+D, Dose Response: With dose response, Evaluation Type: Evaluation A (Pre-1980)
[7] = Species/Cell Type: Nonhuman, Assay Code: CCG-, Evaluation Type: Evaluation A (Pre-1980)
[8] = Species/Cell Type: Salmonella typhimurium (one or more of the five standard strains: TA98, TA100, TA1535, TA1537, and TA1538), Assay Type: Histidine reverse gene mutation, Ames assay, Assay Code: SAL+*, Activation: With metabolic activation, Evaluation Type: Evaluation A (Pre-1980)
[9] = Species/Cell Type: Salmonella typhimurium (one or more of the five standard strains: TA98, TA100, TA1535, TA1537, and TA1538), Assay Type: Histidine reverse gene mutation, Ames assay, Assay Code: SALT, Evaluation Type: Evaluation A (Pre-1980)

C1OC1C1CO1 (centres undefined)
mutagenic call (Species/Cell Type: Aspergillus nidulans, Assay Type: Forward gene mutation, Assay Code: ASF+, Evaluation Type: Evaluation A (Pre-1980)): active; positive
mutagenic call (Species/Cell Type: Aspergillus nidulans, Assay Type: Mitotic recombination, Assay Code: ASG+, Evaluation Type: Evaluation A (Pre-1980)): active; positive
mutagenic call (Species/Cell Type: Drosophila melanogaster, Assay Type: Sex-linked recessive lethal gene mutation, Assay Code: SRL+, Evaluation Type: Evaluation A (Pre-1980)): active; positive
mutagenic call (Species/Cell Type: Drosophila melanogaster, Sex: Male, Assay Type: Heritable translocation test, chromosome aberrations, Assay Code: DHT+, Evaluation Type: Evaluation A (Pre-1980)): active; positive
mutagenic call [1]: active; positive
mutagenic call (Species/Cell Type: Fischer rat embryo (RLV/1706) cells, Assay Type: Cell transformation, viral enhanced, Assay Code: CTR+, Evaluation Type: Evaluation A (Pre-1980)): active; positive
mutagenic call (Species/Cell Type: Glycine max (soybean), Assay Type: Gene mutation, Assay Code: GLM+, Evaluation Type: Evaluation A (Pre-1980)): active; positive
mutagenic call (Species/Cell Type: Hordeum vulgare (barley), Assay Type: Chromosome aberrations, Assay Code: HOC+, Evaluation Type: Evaluation A (Pre-1980)): active; positive
mutagenic call (Species/Cell Type: Human lymphocytes, Assay Type: Sister-chromatid exchange (SCE) in vitro, Assay Code: SCL+D, Dose Response: With dose response, Evaluation Type: Evaluation B (Post-1980)): active; positive
mutagenic call [2]: active; positive
mutagenic call (Species/Cell Type: Mouse (BALB/c-3T3) cells, Assay Type: Cell transformation, Assay Code: CTB+D, Dose Response: With dose response, Evaluation Type: Evaluation A (Pre-1980)): active; positive
mutagenic call [3]: active; positive
mutagenic call (Species/Cell Type: Neurospora crassa, Assay Type: Reverse gene mutation, Assay Code: NER+, Evaluation Type: Evaluation A (Pre-1980)): active; positive
call (Species/Cell Type: Nonhuman, Assay Code: CCG+, Evaluation Type: Evaluation A (Pre-1980)): active; positive
mutagenic call (Species/Cell Type: Nonhuman, Assay Type: Sister-chromatid exchange (SCE) in vitro, Assay Code: SC2+D, Dose Response: With dose response, Evaluation Type: Evaluation A (Pre-1980)): active; positive
mutagenic call (Species/Cell Type: Nonhuman, Assay Type: Sister-chromatid exchange (SCE) in vivo, Assay Code: SC3+D, Dose Response: With dose response, Evaluation Type: Evaluation B (Post-1980)): active; positive
mutagenic call [4]: active; positive
mutagenic call (Species/Cell Type: Saccharomyces cerevisiae, Assay Type: Mitotic recombination or gene conversion, Assay Code: YEH+, Evaluation Type: Evaluation A (Pre-1980)): active; positive
mutagenic call (Species/Cell Type: Saccharomyces cerevisiae, Assay Type: Reverse gene mutation, Assay Code: YER+, Evaluation Type: Evaluation A (Pre-1980)): active; positive
mutagenic call [5]: active; positive
mutagenic call (Species/Cell Type: Salmonella typhimurium, Assay Type: Forward and reverse gene mutation, host-mediated assay, Assay Code: HMA+, Evaluation Type: Evaluation A (Pre-1980)): active; positive
mutagenic call (Species/Cell Type: Schizosaccharomyces pombe, Assay Type: Reverse gene mutation, Assay Code: YEZ+, Evaluation Type: Evaluation A (Pre-1980)): active; positive
mutagenic call (Species/Cell Type: Syrian hamster embryo (SHE) cells, Assay Type: Cell transformation, clonal assay, Assay Code: CTC+D, Dose Response: With dose response, Evaluation Type: Evaluation A (Pre-1980)): active; positive
mutagenic call [6]: active; positive

CNC(=O)CSP(=S)(OC)OC
mutagenic call (Species/Cell Type: Allium cepa, Assay Type: Chromosome aberrations, Assay Code: ALC+, Evaluation Type: Evaluation A (Pre-1980)): active; positive
mutagenic call (Species/Cell Type: Bacillus subtilis (H17 vs M45), Assay Type: Rec-assay, spot test, DNA effects (bacterial DNA repair), Assay Code: REWT, Evaluation Type: Evaluation A (Pre-1980)): no conclusion
mutagenic call (Species/Cell Type: Drosophila melanogaster, Assay Type: Sex-linked recessive lethal gene mutation, Assay Code: SRL-, Evaluation Type: Evaluation A (Pre-1980)): inactive; negative
mutagenic call [2]: active; positive
mutagenic call (Species/Cell Type: Mammalian polychromatic erythrocytes, Assay Type: Micronucleus test, chromosome aberrations, Assay Code: MNT+U, Dose Response: Unconfirmed positive response, Evaluation Type: Evaluation B (Post-1980)): active; positive
call [7]: inactive; negative
mutagenic call (Species/Cell Type: Nonhuman, Assay Type: Sister-chromatid exchange (SCE) in vitro, Assay Code: SC2+, Evaluation Type: Evaluation B (Post-1980)): active; positive
mutagenic call [4]: active; positive
mutagenic call [6]: active; positive

CC(=O)OC(c1ccccc1)N(C)N=O (centres undefined)
mutagenic call [5]: active; positive

Cc1c2c(cc3c1ccc1ccccc13)C=CC(O)C2O (centres undefined)
mutagenic call [8]: active; positive

CCOc1ccc(CC(=O)OC)cc1CSC(=N)N
mutagenic call (Species/Cell Type: Saccharomyces cerevisiae, Assay Type: Reverse gene mutation, Assay Code: YERT, Evaluation Type: Evaluation A (Pre-1980)): no conclusion

c1ccc2[nH]c(-c3cscn3)nc2c1
mutagenic call (Species/Cell Type: Aspergillus nidulans, Assay Type: Aneuploidy, chromosome aberrations, Assay Code: ASN+, Evaluation Type: Evaluation A (Pre-1980)): active; positive
mutagenic call (Species/Cell Type: Aspergillus nidulans, Assay Type: Mitotic recombination, Assay Code: ASGT, Evaluation Type: Evaluation A (Pre-1980)): no conclusion
mutagenic call (Species/Cell Type: Mammalian polychromatic erythrocytes, Assay Type: Micronucleus test, chromosome aberrations, Assay Code: MNT+, Evaluation Type: Evaluation B (Post-1980)): active; positive

COc1nc2c(c(=O)n(C)c(=O)n2C)n1C
mutagenic call (Species/Cell Type: Allium cepa, Assay Type: Chromosome aberrations, Assay Code: ALC+D, Dose Response: With dose response, Evaluation Type: Evaluation A (Pre-1980)): active; positive
mutagenic call (Species/Cell Type: Vicia faba, Assay Type: Chromosome aberrations, Assay Code: VIC+, Evaluation Type: Evaluation A (Pre-1980)): active; positive

O=[N+]([O-])O.[Cr]
mutagenic call [9]: no conclusion

CCOC(=O)Nc1ncc(-c2ccc(Cl)cc2)[nH]1
mutagenic call (Species/Cell Type: Salmonella typhimurium, Assay Type: Forward and reverse gene mutation, host-mediated assay, Assay Code: HMAT, Evaluation Type: Evaluation A (Pre-1980)): no conclusion

NC(=O)NO
mutagenic call (Species/Cell Type: Chinese hamster lung (V79) cells, Assay Type: Forward gene mutation at the HPRT or ouabain locus, Assay Code: V79-, Evaluation Type: Evaluation A (Pre-1980)): inactive; negative
mutagenic call [1]: active; positive
mutagenic call (Species/Cell Type: Human lymphocytes or leukocytes, Assay Type: Chromosome aberrations in vitro, Assay Code: CY7+, Evaluation Type: Evaluation A (Pre-1980)): active; positive
mutagenic call (Species/Cell Type: Mammalian polychromatic erythrocytes, Assay Type: Micronucleus test, chromosome aberrations, Assay Code: MNTT, Evaluation Type: Evaluation A (Pre-1980)): no conclusion
mutagenic call (Species/Cell Type: Mouse (BALB/c-3T3) cells, Assay Type: Cell transformation, Assay Code: CTB-, Evaluation Type: Evaluation A (Pre-1980)): inactive; negative
mutagenic call (Species/Cell Type: Mouse, Sex: Male, Assay Type: Sperm morphology, Assay Code: SPI+, Evaluation Type: Evaluation A (Pre-1980)): active; positive
call (Species/Cell Type: Nonhuman, Assay Code: CCGT, Evaluation Type: Evaluation A (Pre-1980)): no conclusion
mutagenic call (Species/Cell Type: Nonhuman, Assay Type: Sister-chromatid exchange (SCE) in vitro, Assay Code: SC2+D, Dose Response: With dose response, Evaluation Type: Evaluation B (Post-1980)): active; positive
mutagenic call (Species/Cell Type: Nonhuman, Assay Type: Sister-chromatid exchange (SCE) in vitro, Assay Code: SC2-, Evaluation Type: Evaluation A (Pre-1980)): inactive; negative
mutagenic call [4]: active; positive
mutagenic call (Species/Cell Type: Syrian hamster embryo (SA7/SHE) cells, Assay Type: Cell transformation, viral enhanced, Assay Code: CT7+, Evaluation Type: Evaluation A (Pre-1980)): active; positive
mutagenic call (Species/Cell Type: Tradescantia species, Assay Type: Chromosome aberrations, Assay Code: TRC+, Evaluation Type: Evaluation A (Pre-1980)): active; positive

OOC1CCCc2ccccc21 (centres undefined)
mutagenic call (Species/Cell Type: Saccharomyces cerevisiae, Assay Type: Mitotic recombination or gene conversion, Assay Code: YEC-, Evaluation Type: Evaluation A (Pre-1980)): inactive; negative

Nc1nc(NO)c2[nH]cnc2n1
mutagenic call (Species/Cell Type: Escherichia coli WP2, Assay Type: Tryptophan reverse gene mutation, Assay Code: WP2T, Evaluation Type: Evaluation A (Pre-1980)): no conclusion
mutagenic call (Species/Cell Type: Escherichia coli WP2 UVRA, Assay Type: Tryptophan reverse gene mutation, Assay Code: WPUT, Evaluation Type: Evaluation A (Pre-1980)): no conclusion
mutagenic call [3]: active; positive

Nc1nc(-c2csc(N)n2)cs1
mutagenic call [9]: no conclusion

Cc1nc(N(C)C)nc(OC(=O)N(C)C)c1C
mutagenic call (Species/Cell Type: Aspergillus nidulans, Assay Type: Aneuploidy, chromosome aberrations, Assay Code: ASN-, Evaluation Type: Evaluation A (Pre-1980)): inactive; negative

C=CCN(CC=C)N=O
mutagenic call [8]: active; positive

O=C(O)c1ccc(C(=O)O)cc1
mutagenic call (Species/Cell Type: Syrian hamster embryo (SA7/SHE) cells, Assay Type: Cell transformation, viral enhanced, Assay Code: CT7-, Evaluation Type: Evaluation A (Pre-1980)): inactive; negative

CNC(=O)N(C)N=O
mutagenic call (Species/Cell Type: Arabidopsis species, Assay Type: Gene mutation, Assay Code: ARM+, Evaluation Type: Evaluation A (Pre-1980)): active; positive
mutagenic call [5]: active; positive
mutagenic call (Species/Cell Type: Zea mays (corn), Assay Type: Gene mutation, Assay Code: ZEM+D, Dose Response: With dose response, Evaluation Type: Evaluation A (Pre-1980)): active; positive

OC[C@@H](O)[C@@H](O)[C@H](O)[C@H](O)CO
mutagenic call (Species/Cell Type: Escherichia coli WP2 UVRA, Assay Type: Tryptophan reverse gene mutation, Assay Code: WPU-*, Activation: With metabolic activation, Evaluation Type: Evaluation A (Pre-1980)): inactive; negative
call [7]: inactive; negative

Nc1ccc(Cl)cc1Cl
mutagenic call (Species/Cell Type: Mouse, Sex: Male, Assay Type: Sperm morphology, Assay Code: SPI-, Evaluation Type: Evaluation A (Pre-1980)): inactive; negative
